# Key:
# [1] = test system: distinct kinases tested excluding mutant variants, typically 359 or 386 kinases; assay: Kinase selectivity score from competition binding panel; conditions: compound at 10 μM; fraction of kinases with inhibition of 90% or greater
# Protocol: (§1) Competition binding assays used herein were developed, validated and performed as described in Fabian et al., Nature Biotechnology 2005, 23,329-336. Kinases were produced as fusions to T7 phage (See, Fabian et al. or WO04/015142) or alternatively, the kinases were expressed in HEK-293 cells and subsequently tagged with DNA for PCR detection (See, WO08/005310). For the binding assays, streptavidin-coated magnetic beads were treated with biotinylated affinity ligands for 30 min at rt to generate affinity resins. The liganded beads were blocked with excess biotin and washed with blocking buffer (SeaBlock (Pierce), 1% BSA, 0.05% Tween 20, 1 mM DTT) to remove unbound ligand and to reduce non-specific binding. Binding reactions were assembled by combining kinase, liganded affinity beads, and test compounds in 1× binding buffer (20% SeaBlock, 0.17×PBS, 0.05% Tween 20, 6 mM DTT). Test compounds were prepared as 100× stocks in DMSO and rapidly diluted into the aqueous environment. DMSO was added to control assays lacking a test compound. Primary screen interactions were performed in polypropylene 384-well plates in a final volume of 34 μL, while Kd determinations were performed in polystyrene 96-well plates in a final volume of 135 μL. The assay plates were incubated at room temperature with shaking for 1 hour, long enough for binding reactions to reach equilibrium, and the affinity beads were washed extensively with wash buffer (1× PBS, 0.05% Tween 20) to remove unbound protein. The beads were then resuspended in elution buffer (1× PBS, 0.05% Tween 20, 2 μM non-biotinylated affinity ligand) and incubated at room temperature with shaking for 30 min. The kinase concentration in the eluates was measured by quantitative PCR. Each kinase was tested individually against each compound. Kds were determined using eleven serial threefold dilutions. A selectivity score, which is a quantitative measure of selectivity of a compound against a panel of enzymes, may be calculated for a compound by dividing the number of enzymes for which a compound meets a set criteria, (for example, a binding constant of 100 nM or less), by the total number of enzymes tested.
# JAK3 = target: T1, JAK3 (Homo sapiens, UniProt P52333); assay: Competition binding assay, JAK3
# T1 construct: made in house
# T1 sequence (P52333 1-1124): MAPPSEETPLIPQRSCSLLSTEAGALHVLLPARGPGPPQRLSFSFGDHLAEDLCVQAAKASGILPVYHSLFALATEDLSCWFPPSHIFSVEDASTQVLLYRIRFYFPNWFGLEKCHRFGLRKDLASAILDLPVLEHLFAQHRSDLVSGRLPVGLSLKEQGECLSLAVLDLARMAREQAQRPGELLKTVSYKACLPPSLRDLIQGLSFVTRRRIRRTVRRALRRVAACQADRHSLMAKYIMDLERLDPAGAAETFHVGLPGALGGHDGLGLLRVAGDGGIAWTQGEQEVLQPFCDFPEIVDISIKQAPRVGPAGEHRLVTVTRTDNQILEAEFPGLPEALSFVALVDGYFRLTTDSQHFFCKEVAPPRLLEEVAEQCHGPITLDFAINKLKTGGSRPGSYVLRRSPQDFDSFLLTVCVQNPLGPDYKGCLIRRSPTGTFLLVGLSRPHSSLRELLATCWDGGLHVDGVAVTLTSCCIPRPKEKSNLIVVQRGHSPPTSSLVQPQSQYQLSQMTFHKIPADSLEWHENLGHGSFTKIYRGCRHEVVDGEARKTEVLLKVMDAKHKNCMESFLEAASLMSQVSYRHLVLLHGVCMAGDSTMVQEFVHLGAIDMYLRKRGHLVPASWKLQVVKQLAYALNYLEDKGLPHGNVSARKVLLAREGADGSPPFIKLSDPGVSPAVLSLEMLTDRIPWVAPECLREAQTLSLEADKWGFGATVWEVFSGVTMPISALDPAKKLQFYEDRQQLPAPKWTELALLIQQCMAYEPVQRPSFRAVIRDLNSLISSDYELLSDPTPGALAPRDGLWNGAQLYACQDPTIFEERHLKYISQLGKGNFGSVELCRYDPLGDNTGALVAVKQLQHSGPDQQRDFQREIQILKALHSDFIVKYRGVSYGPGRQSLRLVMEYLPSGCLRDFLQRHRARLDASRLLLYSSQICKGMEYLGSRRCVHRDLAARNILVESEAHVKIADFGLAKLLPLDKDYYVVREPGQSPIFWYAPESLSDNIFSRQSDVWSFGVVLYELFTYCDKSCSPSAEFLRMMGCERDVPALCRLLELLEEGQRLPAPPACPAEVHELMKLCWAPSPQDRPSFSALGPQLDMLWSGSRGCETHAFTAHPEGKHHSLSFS
# Text: (§2) Competition Binding Assay to Determine Binding Constants (Kd) of the Compounds Against JAK Kinases
# as §1
# [2] = test system: GM-CSFR/JAK2/STAT5 pathway in CSTF-1 cells; assay: CSTF-1 cell-based reporter assay (beta-lactamase, GM-CSF stimulated); set-up: species or system human; conditions: Homo sapiens; GM-CSF at 2 ng/mL, 4 hours; read-out: Cell Assay: CS TF-1 reporter assay IC50
# Protocol: CSTF-1 Cell-Based Reporter Assay
# CSTF-1 cells are derived from the human erythroleukemia cell line that is growth dependent on GM-CSF and has an intact GM-CSFR/JAK2/STAT5 pathway. The cell line contains stably integrated beta-lactamase reporter gene under the control of the […] (irf 1) response element recognized by the activated transcription factor STATS. csTF-1 cells (Invitrogen K1219) were washed with assay media (97% OPTIMEM/ 0.5% dialyzed FBS/0.1 mM NEAA/1 mM Na pyr/P/S) and seeded in the same media at 5×10^5 cell/mL in T150 flask. After 16 hour incubation, cells were seeded at 2×10^5 cell/well in 50 μl volume, into Costar, clear bottom, 96-well assay plates. Serial dilutions of compounds were added to the plates with final DMSO concentration at 0.5% and GM-CSF at 2 ng/mL and the plates were then incubated at […] and 5% CO2 for 4 hours. The plates were brought to room temperature before adding Substrate Mixture according to manufacturer's protocol (Invitrogen, Catalog #K1085). The assay plates containing the substrate mixture were incubated in the dark at room temperature for 2 hours. Blue and green fluorescence was measured with excitation at 409 nm and emission at 460 nm (for blue) and excitation at 409 nm and emission at 530 nm (for green) using Spectra Max Gemini EM.
# TYK2 = target: T2, TYK2 (Homo sapiens, UniProt P29597); assay: Competition binding assay, TYK2
# T2 construct: made in house
# Text: as §2, §1
# JAK2 = target: T3, JAK2 (Homo sapiens, UniProt O60674); assay: Competition binding assay, JAK2
# T3 construct: made in house
# Text: as §2, §1
# T3 sequence (O60674 whole entry): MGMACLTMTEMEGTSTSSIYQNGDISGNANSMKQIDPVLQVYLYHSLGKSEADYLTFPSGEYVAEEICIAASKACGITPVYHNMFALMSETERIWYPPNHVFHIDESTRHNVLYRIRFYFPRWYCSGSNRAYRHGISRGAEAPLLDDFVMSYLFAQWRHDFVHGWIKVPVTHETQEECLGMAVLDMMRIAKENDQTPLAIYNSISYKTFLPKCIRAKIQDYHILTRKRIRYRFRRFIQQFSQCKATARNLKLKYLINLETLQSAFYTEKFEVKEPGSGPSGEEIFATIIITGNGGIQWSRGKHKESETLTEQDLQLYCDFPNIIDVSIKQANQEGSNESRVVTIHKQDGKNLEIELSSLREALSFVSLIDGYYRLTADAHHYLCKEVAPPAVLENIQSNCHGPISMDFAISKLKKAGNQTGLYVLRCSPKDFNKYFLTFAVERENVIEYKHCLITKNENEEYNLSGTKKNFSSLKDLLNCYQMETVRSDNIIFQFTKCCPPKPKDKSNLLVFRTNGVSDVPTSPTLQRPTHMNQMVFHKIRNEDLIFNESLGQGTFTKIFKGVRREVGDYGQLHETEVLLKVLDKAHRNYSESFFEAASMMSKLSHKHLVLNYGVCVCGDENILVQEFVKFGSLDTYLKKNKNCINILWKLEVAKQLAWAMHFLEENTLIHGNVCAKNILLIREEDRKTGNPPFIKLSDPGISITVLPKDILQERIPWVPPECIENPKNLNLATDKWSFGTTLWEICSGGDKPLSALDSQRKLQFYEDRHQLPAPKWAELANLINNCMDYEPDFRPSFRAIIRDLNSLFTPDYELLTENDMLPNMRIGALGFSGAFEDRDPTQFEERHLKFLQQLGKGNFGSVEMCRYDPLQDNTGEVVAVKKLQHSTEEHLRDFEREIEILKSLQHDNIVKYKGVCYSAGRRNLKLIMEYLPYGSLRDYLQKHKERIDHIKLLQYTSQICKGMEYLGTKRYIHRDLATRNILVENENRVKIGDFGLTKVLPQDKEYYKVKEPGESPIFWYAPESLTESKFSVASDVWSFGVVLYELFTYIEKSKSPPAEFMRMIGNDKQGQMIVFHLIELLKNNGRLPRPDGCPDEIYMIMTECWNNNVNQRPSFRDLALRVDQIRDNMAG
# T2 sequence (P29597 whole entry): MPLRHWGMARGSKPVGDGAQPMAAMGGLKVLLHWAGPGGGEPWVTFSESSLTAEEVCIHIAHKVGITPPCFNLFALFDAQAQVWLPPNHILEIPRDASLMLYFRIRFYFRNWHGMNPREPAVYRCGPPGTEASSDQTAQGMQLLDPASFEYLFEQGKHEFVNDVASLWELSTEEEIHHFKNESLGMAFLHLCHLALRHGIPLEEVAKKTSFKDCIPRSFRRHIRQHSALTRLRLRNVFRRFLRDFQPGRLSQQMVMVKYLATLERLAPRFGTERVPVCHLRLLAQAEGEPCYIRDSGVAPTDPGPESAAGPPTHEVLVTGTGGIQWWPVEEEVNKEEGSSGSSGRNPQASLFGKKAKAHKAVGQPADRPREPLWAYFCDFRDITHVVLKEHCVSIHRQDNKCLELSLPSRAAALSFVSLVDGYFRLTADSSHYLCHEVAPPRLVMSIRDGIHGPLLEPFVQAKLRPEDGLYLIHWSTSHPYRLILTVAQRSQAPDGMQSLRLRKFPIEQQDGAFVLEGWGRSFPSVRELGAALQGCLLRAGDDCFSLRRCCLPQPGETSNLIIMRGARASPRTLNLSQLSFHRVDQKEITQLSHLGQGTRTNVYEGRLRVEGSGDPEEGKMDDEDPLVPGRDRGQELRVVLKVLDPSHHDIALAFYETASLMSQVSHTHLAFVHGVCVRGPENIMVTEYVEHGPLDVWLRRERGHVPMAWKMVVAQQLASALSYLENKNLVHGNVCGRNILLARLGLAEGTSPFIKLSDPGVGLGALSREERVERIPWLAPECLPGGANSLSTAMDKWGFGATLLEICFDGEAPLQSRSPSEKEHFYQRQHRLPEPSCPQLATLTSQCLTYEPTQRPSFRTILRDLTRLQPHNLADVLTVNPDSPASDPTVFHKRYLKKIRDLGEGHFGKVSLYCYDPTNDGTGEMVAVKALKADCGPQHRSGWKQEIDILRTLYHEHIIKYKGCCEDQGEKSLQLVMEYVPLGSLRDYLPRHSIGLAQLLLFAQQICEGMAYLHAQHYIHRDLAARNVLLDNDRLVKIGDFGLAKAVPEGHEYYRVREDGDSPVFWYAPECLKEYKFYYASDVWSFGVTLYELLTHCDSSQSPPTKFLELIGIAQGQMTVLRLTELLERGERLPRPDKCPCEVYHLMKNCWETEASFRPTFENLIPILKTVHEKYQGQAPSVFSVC
Structure (SMILES),S-Score: S(10) at 10 μM [1],Kd (JAK3) [nM],IC50 [2] [nM],Kd (TYK2) [nM],Kd (JAK2) [nM]
"CC(C)(C)c1cc2nc(C(=O)c3ccc(F)cc3)nc(Nc3cc[nH]n3)c2s1 [Example 28, (4-(1H-pyrazol-3-ylamino)-6-tert-butylthieno[3,2-d]pyrimidin-2-yl)(4-fluorophenyl)methanone]",A (A ≦ 0.3),> 100,100 to 500,> 100,1 to 10
"Cc1cc(Nc2nc(C(O)c3ccc(F)cc3)nc3cc(C(C)(C)C)sc23)n[nH]1 (stereo not drawn) [Example 27, (6-tert-butyl-4-(5-methyl-1H-pyrazol-3-ylamino)thieno[3,2-d]pyrimidin-2-yl)(4-fluorophenyl)methanol]",A (A ≦ 0.3),10 to 100,100 to 500,> 100,≤ 1
"Cc1cc(Nc2nc(C(O)c3ccc(F)cc3)nc3scc(C)c23)n[nH]1 (racemic) [Example 11, (R,S)-(4-Fluorophenyl)(5-methyl-4-(5-methyl-1H-pyrazol-3-ylamino)thieno[2,3-d]pyrimidin-2-yl)methanol]",A (A ≦ 0.3),> 100,> 500,> 100,> 10
"Cc1cc(Nc2nc(C(=O)c3ccc(F)cc3)nc3cc(C(C)(C)C)sc23)n[nH]1 [Example 26, (6-tert-butyl-4-(5-methyl-1H-pyrazol-3-ylamino)thieno[3,2-d]pyrimidin-2-yl)(4-fluorophenyl) methanone]",A (A ≦ 0.3),> 100,100 to 500,> 100,1 to 10
"CC(C)(C)c1cc2nc(C(F)(F)c3ccc(F)cc3)nc(Nc3cc[nH]n3)c2s1 [Example 31, 6-tert-butyl-2-(difluoro(4-fluorophenyl)methyl)-N-(1H-pyrazol-3-yl)thieno[3,2-d]pyrimidin-4-amine]",A (A ≦ 0.3),> 100,100 to 500,> 100,1 to 10
"Cc1cc(Nc2nc(C(=O)c3ccc(F)cc3)nc3c(C)csc23)n[nH]1 [Example 22, (4-fluorophenyl)(7-methyl-4-(5-methyl-1H-pyrazol-3-ylamino)thieno[3,2-d]pyrimidin-2-yl)methanone]",A (A ≦ 0.3),> 100,100 to 500,> 100,1 to 10
"Cc1cc(Nc2nc(C(O)c3ccc(F)cc3)nc3cc(C)sc23)n[nH]1 (racemic) [Example 21, (R,S)-(4-fluorophenyl)(6-methyl-4-(5-methyl-1H-pyrazol-3-ylamino)thieno[3,2-d]pyrimidin-2-yl)methanol]",B (0.3 < B ≦ 0.4),≤ 10,≤ 100,≤ 10,≤ 1
"Fc1ccc(C(F)(F)c2nc(Nc3cc[nH]n3)c3ccsc3n2)cc1 [Example 2, 2-(difluoro(4-fluorophenyl)methyl)-N-(1H-pyrazol-3-yl)thieno[2,3-d]pyrimidin-4-amine]",A (A ≦ 0.3),10 to 100,≤ 100,≤ 10,≤ 1
"Cc1cc(Nc2nc(C(F)(F)c3ccc(F)cn3)nc3ccsc23)n[nH]1 [Example 33, 2-(difluoro(5-fluoropyridin-2-yl)methyl)-N-(5-methyl-1H-pyrazol-3-yl)thieno[3,2-d]pyrimidin-4-amine]",C (0.4 < C ≦ 0.5),≤ 10,≤ 100,≤ 10,≤ 1
"CC(C)(C)c1cc2nc(C(O)c3ccc(F)cc3)nc(Nc3cc[nH]n3)c2s1 (racemic) [Example 29, (R,S)-(4-(1H-pyrazol-3-ylamino)-6-tert-butylthieno[3,2-d]pyrimidin-2-yl)(4-fluorophenyl)methanol]",A (A ≦ 0.3),> 100,100 to 500,> 100,1 to 10
"Cc1cc(Nc2nc(C(O)c3ccc(F)cc3)nc3ccsc23)n[nH]1 (racemic) [Example 6, (R,S)-4-Fluorophenyl)(4-(5-methyl-1H-pyrazol-3-ylamino)thieno[3,2-d]pyrimidin-2-yl)methanol]",A (A ≦ 0.3),≤ 10,≤ 100,≤ 10,≤ 1
"COC(c1ccc(F)cc1)c1nc(Nc2cc(C)[nH]n2)c2ccsc2n1 (racemic) [Example 9, (R,S)-2-((4-fluorophenyl)(methoxy)methyl)-N-(5-methyl-1H-pyrazol-3-yl)thieno[2,3-d]pyrimidin-4-amine]",A (A ≦ 0.3),10 to 100,100 to 500,≤ 10,≤ 1
"Cc1cc(Nc2nc(C(F)(F)c3ccc(F)cc3)nc3ccsc23)n[nH]1 [Example 7, 2-(difluoro(4-fluorophenyl)methyl)-N-(5-methyl-1H-pyrazol-3-yl)thieno[3,2-d]pyrimidin-4-amine]",C (0.4 < C ≦ 0.5),≤ 10,≤ 100,≤ 10,≤ 1
"Cc1cc(Nc2nc(C(=O)c3ccc(F)cc3)nc3scc(C)c23)n[nH]1 [Example 10, (4-fluorophenyl)(5-methyl-4-(5-methyl-1H-pyrazol-3-ylamino)thieno[2,3-d]pyrimidin-2-yl)methanone]",A (A ≦ 0.3),> 100,> 500,> 100,> 10
"COC(c1ccc(F)cc1)c1nc(Nc2cc(C)[nH]n2)c2sccc2n1 (stereo not drawn) [Example 19, 2-((4-fluorophenyl)(methoxy)methyl)-N-(5-methyl-1H-pyrazol-3-yl)thieno[3,2-d]pyrimidin-4-amine]",A (A ≦ 0.3),10 to 100,100 to 500,10 to 100,1 to 10
